From patent publication US10519177B2, “Heterocyclic compounds and uses thereof” (Plexxikon Inc., priority 2013, dated 2019)

Tests used:
[1] = target: BRD4-BD12 (1-477) (Homo sapiens (Human), UniProt O60885); assay: Alphascreen binding assay BRD4-BD12; details: BRD4(1 2) H4; read-out: Biochemical activity (IC50 μM) BRD4(1 2) H4
Outline: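 In this competition format, compounds displace a biotinylated tetra-acetyl H4 peptide from E. coli-expressed human BRD4 bromodomain constructs captured on nickel chelate beads. The reaction runs at pH 7.5 with 2 mM DTT and detergent for 1 h at room temperature before a 30 min bead step.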

[2] = tested on: MV-4-11 cells; assay: Oncology cell growth assay MV-4-11 (CellTiter Glo); type: cell-based; details: Homo sapiens, MV4-11, 72 h; MV-4-11, 3d growth; read-out: Cell activity (IC50 μM) MV-4-11 3d-Growth
Outline: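 Growth read by CellTiter Glo luminescence after 72 h compound treatment of MLL-AF4-bearing MV-4-11 cells (3000/well). Titration: 8 points, 1:3 steps, maximum 10 μM, 0.2% DMSO final. Data normalized to DMSO wells, four-parameter fit gives pIC50.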

[3] = tested on: bromodomain; assay: at least one of the bromodomain cell assays of Example 57; type: cell-based; details: at least one of the bromodomain cell assays described in Example 57; read-out: IC50 in at least one of the bromodomain cell assays

| Compound | IC50 [1] [µM] | IC50 [2] [µM] | IC50 [3] [µM] |
| --- | --- | --- | --- |
| Cc1noc(C)c1-c1cnc2c(I)cn(Cc3cccnn3)c2c1 [P-0528, 4-[3-iodo-1-(pyridazin-3-ylmethyl)pyrrolo[3,2-b]pyridin-6-yl]-3,5-dimethyl-isoxazole] | < 1 | < 1 | < 10 |
| COC(=O)CCc1ccc(-c2cn(CC3CCC(F)(F)CC3)c3cc(-c4c(C)noc4C)cnc23)cc1 [P-0529, methyl 3-[4-[1-[(4,4-difluorocyclohexyl)methyl]-6-(3,5-dimethylisoxazol-4-yl)pyrrolo[3,2-b]pyridin-3-yl]phenyl]propanoate] | < 1 | < 1 | < 10 |
| Cc1noc(C)c1-c1cnc2c(-c3ccc(CCC(=O)O)cc3)cn(CC3CCC(F)(F)CC3)c2c1 [P-0530, 3-[4-[1-[(4,4-difluorocyclohexyl)methyl]-6-(3,5-dimethylisoxazol-4-yl)pyrrolo[3,2-b]pyridin-3-yl]phenyl]propanoic acid] | < 1 | < 1 | < 10 |
| Cc1noc(C)c1-c1cnc2c(-c3cnn(CC(F)(F)F)c3)cn(Cc3cccnn3)c2c1 [P-0531, 3,5-dimethyl-4-[1-(pyridazin-3-ylmethyl)-3-[1-(2,2,2-trifluoroethyl)pyrazin-4-yl]pyrrolo[3,2-b]pyridin-6-yl]isoxazole] | < 1 | < 1 | < 10 |
| CNC(=O)c1ccc(-n2cc(CC3CCC(F)(F)CC3)c3cc(-c4c(C)noc4C)cnc32)nc1 [P-0532, 6-[3-[(4,4-difluorocyclohexyl)methyl]-5-(3,5-dimethylisoxazol-4-yl)pyrrolo[2,3-b]pyridin-1-yl]-N-methyl-pyridine-3-carboxamide] | < 1 | < 1 | < 10 |
| Cc1noc(C)c1-c1cnc2c(c1)c(CC1CCC(F)(F)CC1)cn2-c1ccc(C(=O)NC2CC2)cn1 [P-0533, N-cyclopropyl-6-[3-[(4,4-difluorocyclohexyl)methyl]-5-(3,5-dimethylisoxazol-4-yl)pyrrolo[2,3-b]pyridin-1-yl]pyridine-3-carboxamide] | < 1 | < 1 | < 10 |
| CCOC(=O)c1ccc(-c2cn(CC3CCC(F)(F)CC3)c3cc(-c4c(C)noc4C)cnc23)cc1Cl [P-0534, ethyl 2-chloro-4-[1-[(4,4-difluorocyclohexyl)methyl]-6-(3,5-dimethylisoxazol-4-yl)pyrrolo[3,2-b]pyridin-3-yl]benzoate] | < 1 | 1 to 10 | < 10 |
| Cc1noc(C)c1-c1cnc2c(-c3ccc(C(=O)O)c(Cl)c3)cn(CC3CCC(F)(F)CC3)c2c1 [P-0535, 2-chloro-4-[1-[(4,4-difluorocyclohexyl)methyl]-6-(3,5-dimethylisoxazol-4-yl)pyrrolo[3,2-b]pyridin-3-yl]benzoic acid] | < 1 | < 1 | < 10 |
| Cc1noc(C)c1-c1cnc2c(-c3ccc(C(=O)NC4CC4)nc3)cn(CC3CCC(F)(F)CC3)c2c1 [P-0536, N-cyclopropyl-5-[1-[(4,4-difluorocyclohexyl)methyl]-6-(3,5-dimethylisoxazol-4-yl)pyrrolo[3,2-b]pyridin-3-yl]pyridine-2-carboxamide] | < 1 | < 1 | < 10 |
| CCOC(=O)c1ccc(-c2cn(CC3CCC(F)(F)CC3)c3cc(-c4c(C)noc4C)cnc23)cc1 [P-0537, ethyl 4-[1-[(4,4-difluorocyclohexyl)methyl]-6-(3,5-dimethylisoxazol-4-yl)pyrrolo[3,2-b]pyridin-3-yl]benzoate] | < 1 | < 1 | < 10 |
| [2H]C([2H])(C1CCC(F)(F)CC1)n1cc(-c2ccc(C(=O)OC)cc2)c2ncc(-c3c(C)noc3C)cc21 [P-0538, methyl 4-[1-[dideuterio-(4,4-difluorocyclohexyl)methyl]-6-(3,5-dimethylisoxazol-4-yl)pyrrolo[3,2-b]pyridin-3-yl]benzoate] | < 1 | < 1 | < 10 |
| COC(=O)c1ccc(-c2cn(Cc3cccnn3)c3cc(-c4c(C)noc4C)cnc23)cc1 [P-0539, methyl 4-[6-(3,5-dimethylisoxazol-4-yl)-1-(pyridazin-3-ylmethyl)pyrrolo[3,2-b]pyridin-3-yl]benzoate] | < 1 | < 1 | < 10 |
| Cc1noc(C)c1-c1cnc2c(-c3ccc(C(=O)O)cc3)cn(Cc3cccnn3)c2c1 [P-0540, 4-[6-(3,5-dimethylisoxazol-4-yl)-1-(pyridazin-3-ylmethyl)pyrrolo[3,2-b]pyridin-3-yl]benzoic acid] | < 1 | < 1 | < 10 |
| Cc1cc(-c2cnc3c(-c4cnn(CC(F)(F)F)c4)cn(CC4CCC(F)(F)CC4)c3c2)cn(C)c1=O [P-0541, 5-[1-[(4,4-difluorocyclohexyl)methyl]-3-[1-(2,2,2-trifluoroethyl)pyrazol-4-yl]pyrrolo[3,2-b]pyridin-6-yl]-1,3-dimethyl-pyridin-2-one] | < 1 | < 1 | < 10 |
| CCOC(=O)c1ccc(-c2cn([C@@H](C)c3ccccn3)c3cc(-c4c(C)noc4C)cnc23)cc1 [P-0542, ethyl 4-[6-(3,5-dimethylisoxazol-4-yl)-1-[(1S)-1-(2-pyridyl)ethyl]pyrrolo[3,2-b]pyridin-3-yl]benzoate] | < 1 | < 1 | < 10 |
| Cc1noc(C)c1-c1cnc2c(-c3ccc(C(=O)NC4CC4)nc3)cn([C@@H](C)c3ccccn3)c2c1 [P-0543, N-cyclopropyl-5-[6-(3,5-dimethylisoxazol-4-yl)-1-[(1S)-1-(2-pyridyl)ethyl]pyrrolo[3,2-b]pyridin-3-yl]pyridine-2-carboxamide] | < 1 | < 1 | < 10 |
| COC(=O)c1ccc(-n2cc(CC3CCC(F)(F)CC3)c3cc(-c4c(C)noc4C)cnc32)cc1 [P-0544, methyl 4-[3-[(4,4-difluorocyclohexyl)methyl]-5-(3,5-dimethylisoxazol-4-yl)pyrrolo[2,3-b]pyridin-1-yl]benzoate] | < 1 | 1 to 10 | < 10 |
| Cc1noc(C)c1-c1cnc2[nH]cc(C(O)(c3ccccn3)c3ccccn3)c2c1 [P-0545, [5-(3,5-dimethylisoxazol-4-yl)-1H-pyrrolo[2,3-b]pyridin-3-yl]-bis(2-pyridyl)methanol] | < 1 | < 1 | < 10 |
| COC(=O)c1ccc(-c2cn(C(C)(C)c3ccccn3)c3cc(-c4c(C)noc4C)cnc23)cc1 [P-0547, methyl 4-[6-(3,5-dimethylisoxazol-4-yl)-1-[1-methyl-1-(2-pyridyl)ethyl]pyrrolo[3,2-b]pyridin-3-yl]benzoate] | < 1 | < 1 | < 10 |
| Cc1noc(C)c1-c1cnc2c(-c3ccc(C(=O)O)cc3)cn(C(C)(C)c3ccccn3)c2c1 [P-0548, 4-[6-(3,5-dimethylisoxazol-4-yl)-1-[1-methyl-1-(2-pyridyl)ethyl]pyrrolo[3,2-b]pyridin-3-yl]benzoic acid] | < 1 | < 1 | < 10 |
| Cc1noc(C)c1-c1cnc2c(I)cn(CC3CCCC3)c2c1 [P-0549] | < 1 | < 1 | < 10 |
